# According to US5726155A, “Regulation of oxidative burst using LMWG-derived peptides and analogs” (The Scripps Research Institute, priority 1993, dated 1998):
# Where no end group is shown, it is not given here.
# Columns and labels:
# NADPH oxidase [1] = experiment: cell-free NADPH oxidase assay with GAP proteins; type: biochemical, human
# Method: Subcellular fractions from human neutrophils for use in cell-free NADPH oxidase assays were prepared as described previously (Curnutte, et al., PNAS USA 86: 825-829 (1989)). Cell-free oxidase assays were conducted as described in Heyworth, et al., Mol. Biol. Cell 4: 261-269 (1993) and Curnutte, et al., Id. (1989). In order to deplete endogenous guanine nucleotides for some experiments, cytosol was dialyzed overnight against three 2-liter volumes of 100 mM KCl/3 mM NaCl/3.5 mM MgCl2 /10 mM PIPES, pH 7.3, as previously described (Peveri, et al., PNAS USA 89: 2494-2498 (1992)). Reaction mixtures contained 4×10^5 cell equivalents (cell eq) of human neutrophil membranes and 1.8×10^6cell eq of neutrophil cytosol. Reactions were performed in the absence of GTPγS, unless otherwise indicated (see FIGS. 3, 7, 8, and 9, and accompanying legends), and with the indicated concentrations of p190 GAP. Rates of O2^- production were calculated from maximum rates of absorbance change after initiation of the reaction with 110 μM SDS.
# NADPH oxidase [2] = target: T1, NADPH oxidase (Homo sapiens, UniProt P04839+P13498+P14598+P19878); experiment: cell-free NADPH oxidase assay (O2- production), inhibition by peptides; type: biochemical; details: for Inhibitory Activity: Table 3, peptide incubated five minutes before 90 μM SDS or 100 μM arachidonic acid; for Percent Inhibition: cell-free system
# T1 construct: 4×10^5 cell equivalents (cell eq) of neutrophil membranes; of neutrophil cytosol, or (2) 100 nM each of baculovirus recombinant p47-phox and p67-phox; from tissue; host or cells: neutrophil membranes and cytosol (human neutrophils, leukapheresis or blood)
# T1 sequence (P04839 2-570 limits assumed): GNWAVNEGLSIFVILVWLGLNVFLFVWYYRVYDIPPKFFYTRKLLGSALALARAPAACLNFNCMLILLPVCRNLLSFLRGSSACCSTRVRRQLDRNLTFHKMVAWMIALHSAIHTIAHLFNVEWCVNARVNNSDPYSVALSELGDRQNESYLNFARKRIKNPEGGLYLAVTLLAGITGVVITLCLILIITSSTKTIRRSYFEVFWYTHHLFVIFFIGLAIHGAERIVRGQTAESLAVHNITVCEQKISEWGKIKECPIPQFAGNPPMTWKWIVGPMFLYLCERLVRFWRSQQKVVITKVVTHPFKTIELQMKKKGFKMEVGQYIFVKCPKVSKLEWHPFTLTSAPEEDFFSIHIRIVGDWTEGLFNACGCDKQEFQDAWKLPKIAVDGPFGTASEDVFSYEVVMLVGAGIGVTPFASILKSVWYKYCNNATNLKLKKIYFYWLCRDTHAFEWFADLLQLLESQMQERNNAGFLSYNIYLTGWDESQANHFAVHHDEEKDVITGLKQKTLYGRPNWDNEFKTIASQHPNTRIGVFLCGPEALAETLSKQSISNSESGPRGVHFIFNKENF
# T1 sequence (P13498 2-195 limits assumed): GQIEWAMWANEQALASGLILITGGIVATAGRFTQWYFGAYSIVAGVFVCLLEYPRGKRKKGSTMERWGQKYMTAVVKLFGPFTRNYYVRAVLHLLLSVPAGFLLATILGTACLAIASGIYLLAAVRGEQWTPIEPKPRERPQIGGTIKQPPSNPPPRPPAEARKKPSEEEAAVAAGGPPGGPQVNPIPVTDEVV
# T1 sequence (P14598 whole entry): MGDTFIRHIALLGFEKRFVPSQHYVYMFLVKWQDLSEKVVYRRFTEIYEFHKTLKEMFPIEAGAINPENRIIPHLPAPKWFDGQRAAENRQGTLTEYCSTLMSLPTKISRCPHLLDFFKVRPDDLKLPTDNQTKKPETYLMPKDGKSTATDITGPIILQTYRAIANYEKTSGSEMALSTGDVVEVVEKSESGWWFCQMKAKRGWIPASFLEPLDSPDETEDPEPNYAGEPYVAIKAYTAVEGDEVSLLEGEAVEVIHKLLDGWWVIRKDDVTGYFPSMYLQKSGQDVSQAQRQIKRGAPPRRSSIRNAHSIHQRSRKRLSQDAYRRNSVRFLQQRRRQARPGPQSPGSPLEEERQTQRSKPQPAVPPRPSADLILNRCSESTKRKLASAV
# T1 sequence (P19878 whole entry): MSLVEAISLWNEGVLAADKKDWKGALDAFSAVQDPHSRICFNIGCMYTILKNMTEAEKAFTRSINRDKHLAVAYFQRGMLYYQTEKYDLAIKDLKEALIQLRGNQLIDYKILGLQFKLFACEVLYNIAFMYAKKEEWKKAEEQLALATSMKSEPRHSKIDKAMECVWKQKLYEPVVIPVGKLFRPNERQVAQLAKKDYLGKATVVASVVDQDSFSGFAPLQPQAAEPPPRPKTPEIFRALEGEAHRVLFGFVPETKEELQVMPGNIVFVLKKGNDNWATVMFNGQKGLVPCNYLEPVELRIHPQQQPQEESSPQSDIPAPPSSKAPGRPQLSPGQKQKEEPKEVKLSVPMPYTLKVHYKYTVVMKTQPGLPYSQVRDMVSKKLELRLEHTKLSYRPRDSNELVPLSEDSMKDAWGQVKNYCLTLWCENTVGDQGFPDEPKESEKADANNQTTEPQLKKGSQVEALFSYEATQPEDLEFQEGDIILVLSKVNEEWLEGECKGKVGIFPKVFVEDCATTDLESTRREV
# Method: Production of O2^- by NADPH oxidase may be monitored in a cell-free system at 25° C. by following the superoxide dismutase (SOD)-inhibitable reduction of cytochrome c at […], as described in Curnutte, et al., PNAS USA 86: 825-829 (1989). The method may be described essentially as follows.
# Activation of the dormant respiratory burst oxidase in a cell-free system by SDS in the presence of cytosol (or partially-purified cytosol factor components) was monitored by measuring O2^- production by the activated oxidase. O2^- generation was determined by a continuous assay in which superoxide dismutase-inhibitable cytochrome c reduction was followed with time at 25° C. in a double-beam spectrophotometer at 550 nm by a modification of the method described in Curnutte, et al., J. Biol. Chem. 262: 6450-6452 (1987). Assay mixtures contained (final concentration) 0.15 mM cytochrome c, 6.5 mM MgCl2, 87 mM KCl, 2.6 mM NaCl, 8.7 mM PIPES (pH 7.3), 0.27 mM ATP (Sigma), 0.33 mM EGTA, 0.16 mM NADPH, and 0.04 mM SDS, plus 0.9×10^7 cell eq of cytosol and 1.55×10^6 cell eq of membranes solubilized in deoxycholate (0.94 mM) in 375 μl. The reference cuvette also received 22.5 μg of superoxide dismutase. All components except NADPH were mixed in the cuvette and allowed to stand for 3.5 minutes to allow activation of the oxidase by SDS. Reactions were then started with NADPH and followed at 550 nm on a Uvikon 810 dual-beam recording spectrophotometer (Kontron, Zurich). Data were collected on a strip chart recorder and the maximal velocity of the reaction, which occurred during the first 20 sec, was used to calculate the oxidase activity.
# A modification of the above-noted method was used for most of the studies described herein and may be summarized as follows. Reaction mixtures (generally, in 96-well microtiter plates) typically contain 0.1 mM cytochrome c, 6.5 mM MgCl2, 87 mM KCl, 2.6 mM NaCl, 8.7 mM PIPES (pH 7.3), 10 μM GTPγS, 0.16 mM NADPH, and 4×10^5 cell equivalents (cell eq) of neutrophil membranes (about 1.6 μg protein), in a total volume of 150 μl. In addition, reactions contain varying amounts of recombinant LMWG protein, and either (1) 8 μl (7.2×10^5 cell eq.; about 18 μg protein) of neutrophil cytosol, or (2) 100 nM each of baculovirus recombinant p47-phox and p67-phox as specified herein. Control wells (paired with each reaction well) contained 9 μg SOD, to account for non-O2^- -dependent reduction of cytochrome c. Superoxide production is initiated by the addition of SDS to give a final concentration of either 90 μM (with recombinant p47-phox/p67-phox) or 110 μM (with neutrophil cytosol). Maximum rates of absorbance change, calculated from the first derivative of the time course using Softmax software (Molecular Devices, release 2.01, Menlo Park, Calif., were converted to nmol O2^- generated/min/10^7 cell eq of membrane, after subtracting the rate achieved in the presence of SOD from that obtained in its absence, to give the rate of O2^- -dependent cytochrome c reduction, by using an extinction coefficient of 20.5 mM^-1 cm^-1 for reduced minus oxidized cytochrome c, a value determined experimentally for the 550±1-nm filter used in the kinetic microplate reader and the path length of the 250-μl reaction mixture. (See, e.g., Curnutte, et al., PNAS USA 86: 825-829 (1989).
# Peptides were tested for oxidase inhibiting activity using the cell-free assay of Curnutte, et al. (PNAS USA 86: 825-829 (1989)). Peptides were added at indicated concentrations and incubated for five minutes at room temperature prior to initiation of O2^- formation using either 90 μM SDS or 100 μM arachidonic acid as an activating stimulus.
# Rap1A = target: T2, Rap1A (Homo sapiens, UniProt P62834); experiment: guanine nucleotide (GDP/GTP) exchange; type: biochemical
# T2 construct: Recombinant full length Rap1a, H-Ras, and CDC42Hs were purified after expression in a baculovirus/Sf9 insect cell system; made in house; host or cells: baculovirus/Sf9 insect cells
# T2 sequence (P62834 1-184): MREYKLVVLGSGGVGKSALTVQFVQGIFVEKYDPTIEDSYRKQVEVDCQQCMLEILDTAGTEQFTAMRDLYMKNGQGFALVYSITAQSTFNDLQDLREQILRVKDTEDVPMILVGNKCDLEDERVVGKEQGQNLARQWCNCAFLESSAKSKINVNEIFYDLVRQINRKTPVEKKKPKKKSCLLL
# Rac2 protein = Rac2 protein (Homo sapiens, UniProt P15153); experiment: guanine nucleotide (GDP/GTP) exchange; type: biochemical; details: FIG. 4
Molecule,Inhibitory Activity (NADPH oxidase [2]),Percent Inhibition (NADPH oxidase [2]; 100 μg/ml peptide) [%],also measured
"c1ccc2c(c1)[I+]c1ccccc1-2 [diphenylene iodonium, reference compound]",–,–,"inhibition of O2- formation when added after initiation with SDS (NADPH oxidase [1]; added 1.7 or 5 minutes after SDS, p190 GAP 350 nM, DPI 1 μM, FIG. 9): could be inhibited"
"CPPPVKKRKRK [Rac1 aa178-188, CPPPVKKRKRK]",Active,–,–
"CPQPTRQQKRA [Rac2 aa178-188, CPQPTRQQKRA]",Active,–,–
"EKKKPKKKS [Rap1A aa172-180, EKKKPKKKS]",Active,–,–
"EKLKEKKLTPI [Rac1 aa127-137, EKLKEKKLTPI]",Inactive,–,–
"GEHAQKHEQALQKLA [ECG 163, GEHAQKHEQALQKLA, reference compound]",Inactive,8.0,Percent Inhibition (NADPH oxidase [2]; 200 μg/ml peptide): 5.1%
"GELAQKLEQALQKLA [ECG 125, GELAQKLEQALQKLA, reference compound]",Inactive,23.3,Percent Inhibition (NADPH oxidase [2]; 200 μg/ml peptide): 34.0%
"GLAQKLLEALQKALLA [ICS4, GLAQKLLEALQKALLA]",Active,99.8,Percent Inhibition (NADPH oxidase [2]; 27 μg/ml peptide): 86.8%
"GLTISSLFSRLFGKKQ [ARF 26, GLTISSLFSRLFGKKQ]",–,100,Percent Inhibition (NADPH oxidase [2]; 27 μg/ml peptide): 30.9%
GTPγS-bound form of RhoA: recombinant Sf9 cell RhoA bound to GTPγS,–,–,"reversal of p190 GAP inhibition of NADPH oxidase by added GTP-binding protein (NADPH oxidase [1]; 280 nM p190 GAP, Rac1.GTPγS 30 nM, RhoA.GTPγS 100 nM, Rac2 (Q61L) 10 nM, FIG. 8): did not reverse inhibition"
INLKALAALAKKIL-NH2 [Mastoparan],Active,–,"GDP/GTP exchange on Rap1A (Rap1A): stimulate GDP/GTP exchange; inhibition of NADPH oxidase activity, in words (NADPH oxidase [2]; FIG. 1, dose/response conditions): most dramatic; GDP/GTP exchange on Rac (Rac2 protein): stimulate GDP/GTP exchange"
KNVFDEAILAALEPPEPKKSRR [CDC42Hs],Inactive,–,–
"LTQRGLKTVFDE [Rac1 aa161-172, LTQRGLKTVFDE]",Inactive,–,–
"MGCTVSAEDKAAAER [Gi #5, MGCTVSAEDKAAAER, reference compound]",Inactive,–,–
"PGKARKKSS [Rap1B aa172-180, PGKARKKSS]",Active,–,–
"SKFEDLNKRKDT [Gi #2, SKFEDLNKRKDT, reference compound]",Inactive,–,–
"SSLFSRLFGKKQ [ARF 28, SSLFSRLFGKKQ]",–,87.6,Percent Inhibition (NADPH oxidase [2]; 27 μg/ml peptide): 43.5%
"TISSLFSRLFGKKQ [ARF 27, TISSLFSRLFGKKQ]",–,91.3,Percent Inhibition (NADPH oxidase [2]; 27 μg/ml peptide): 55.9%
